# Experiments:
# [1] = system: GABAA receptor-mediated tonic current in hippocampal neurons; test: Whole-cell voltage-clamp recordings of tonic current in astrocyte-neuron co-cultures; assay type: cell-based, mouse; conditions: co-treatment with etomidate 1 μM; recordings 24 h later
# [2] = biological target: T1, α2 subunit containing GABAA receptors (Mus musculus, UniProt P26048); test: Co-IP and WB, gephyrin and α2 subunit containing GABAA receptors; assay type: binding; conditions: immunoprecipitates from Example 1, hippocampal tissue
# T1 construct: α1 and α2 subunit containing GABAA receptors in the hippocampal tissue; from tissue; host or cells: hippocampus of adult mice
# T1 sequence (P26048 29-451): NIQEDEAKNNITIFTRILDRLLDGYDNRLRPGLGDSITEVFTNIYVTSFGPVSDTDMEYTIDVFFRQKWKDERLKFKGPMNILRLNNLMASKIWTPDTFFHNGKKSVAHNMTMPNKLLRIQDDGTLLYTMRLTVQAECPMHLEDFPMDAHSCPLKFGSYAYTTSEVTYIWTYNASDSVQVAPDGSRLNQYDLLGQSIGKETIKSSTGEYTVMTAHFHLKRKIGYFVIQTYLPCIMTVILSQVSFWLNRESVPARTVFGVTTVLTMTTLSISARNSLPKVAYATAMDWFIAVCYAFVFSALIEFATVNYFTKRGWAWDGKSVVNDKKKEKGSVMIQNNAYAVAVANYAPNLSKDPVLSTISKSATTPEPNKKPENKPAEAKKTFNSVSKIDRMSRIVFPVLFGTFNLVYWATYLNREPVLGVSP
# [3] = biological target: T2, α5 subunit-radixin interaction (Mus musculus, UniProt P26043); test: Co-immunoprecipitation and Western blot of α5 subunit-radixin coupling in hippocampal tissue lysate; assay type: binding; conditions: 20 μM peptide without TAT sequence, one hour incubation
# T2 construct: tissue lysate prepared from the hippocampus of adult mice; from tissue; host or cells: hippocampus of adult mice (C57BL/6J×SvEv)
# Description: The experiments used tissue lysate prepared from the hippocampus of adult mice (C57BL/6J×SvEv, 2-4 month old, male). Hippocampal tissue was homogenized in ice-cold RIPA buffer (20 mM Tris-HCL, pH 7.5, 150 mM NaCl, 1 mM Na2EDTA, 1 mM EGTA, 1% NP-40, 1% sodium deoxycholate, 2.5 mM sodium pyrophosphate, 1 mM β-glycerophosphate) supplemented with 1 mM sodium orthovanadate and 1% protease inhibitor cocktail and 1% phosphatase inhibitor cocktail (Roche Diagnostics, GmbH, Manheim Germany). The tissue lysate was subsequently spun at 14,000 rpm for 30 min with the Microfuge 22R Centrifuge (Beckman Coulter™, Brea, California, US). The supernatant was collected and frozen at −20 C°. The next day, the supernatant, after thawing, was re-centrifuged at 14,000 rpm for another 30 min to clear the potential undissolved or pellet substances. After spinning twice, the supernatant was collected for subsequent experiments.
# One hour following the incubation, the antibodies (2-4 μg) against either α5 subunit (cat #sc—31417, Santa Cruz Biotechnology, Inc., 10410 Finnell St. Dallas, TX, 75220, USA) or radixin (cat #ab91312, Abcam Inc., c/o 913860, PO Box 4090 Stn A, Toronto, ON M5W 0E9), or 4 μg of non-specific IgG protein (cat #sc—2028, Santa Cruz Biotechnology, Inc., 10410 Finnell St. Dallas, TX, 75220, USA), were added to the lysate solution. […]
# T2 sequence (P26043 whole entry): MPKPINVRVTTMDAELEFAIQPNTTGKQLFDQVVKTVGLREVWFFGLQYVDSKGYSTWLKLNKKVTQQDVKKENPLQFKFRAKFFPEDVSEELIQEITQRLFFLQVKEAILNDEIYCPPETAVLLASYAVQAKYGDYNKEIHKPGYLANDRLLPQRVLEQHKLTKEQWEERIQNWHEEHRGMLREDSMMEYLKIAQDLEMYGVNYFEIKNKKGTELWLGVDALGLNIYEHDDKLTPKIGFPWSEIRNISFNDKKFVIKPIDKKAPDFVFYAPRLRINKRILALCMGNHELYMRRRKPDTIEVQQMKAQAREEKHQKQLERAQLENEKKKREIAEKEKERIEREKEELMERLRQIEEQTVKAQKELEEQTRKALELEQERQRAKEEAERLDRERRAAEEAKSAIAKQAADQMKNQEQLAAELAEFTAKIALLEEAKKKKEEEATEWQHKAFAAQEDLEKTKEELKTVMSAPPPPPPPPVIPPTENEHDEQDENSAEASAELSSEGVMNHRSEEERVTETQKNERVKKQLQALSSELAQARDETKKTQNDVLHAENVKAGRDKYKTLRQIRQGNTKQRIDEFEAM
sequence,measurement,setting,value
NYFTKRGWAWDGKKAL [inhibitory peptide],etomidate-induced increase in tonic current,[1],reversed
same,effects on α2 subunit containing GABAA receptors (gephyrin interaction),[2],did not have any effects
same,association between α5 subunit and radixin,[3],reduced the association
